Test results taken from the NIST ThermoML archive (doi:10.1021/je800110r).
Numbers after ± are expanded uncertainties.

Conditions: 303.15 K, Liquid, Vibrating tube method

Work on `CCCCCCCCCC` [decane] yielded a mass density (29181 kPa) of 743.5 ± 2.1 kg/m3, a mass density (29208 kPa) of 743.5 ± 2.1 kg/m3 and a mass density (29234 kPa) of 743.6 ± 2.1 kg/m3. It also gave a mass density (29258 kPa) of 743.5 ± 2.1 kg/m3, a mass density (29278 kPa) of 743.6 ± 2.1 kg/m3 and a mass density (29302 kPa) of 743.6 ± 2.1 kg/m3. The mass density (29320 kPa) was 743.5 ± 2.1 kg/m3, the mass density (29341 kPa) was 743.6 ± 2.1 kg/m3 and the mass density (29363 kPa) was 743.6 ± 2.1 kg/m3. It also gave a mass density (29384 kPa) of 743.6 ± 2.1 kg/m3, a mass density (29402 kPa) of 743.6 ± 2.1 kg/m3 and a mass density (29426 kPa) of 743.6 ± 2.1 kg/m3. The mass density (29444 kPa) was 743.7 ± 2.1 kg/m3, the mass density (29466 kPa) was 743.6 ± 2.1 kg/m3 and the mass density (29484 kPa) was 743.7 ± 2.1 kg/m3. The mass density (29502 kPa) was 743.7 ± 2.1 kg/m3, the mass density (29530 kPa) was 743.8 ± 2.1 kg/m3 and the mass density (29548 kPa) was 743.7 ± 2.1 kg/m3. For the same compound, the mass density (29575 kPa) was 743.7 ± 2.1 kg/m3, the mass density (29600 kPa) was 743.7 ± 2.1 kg/m3 and the mass density (29618 kPa) was 743.8 ± 2.1 kg/m3. The mass density (29640 kPa) was 743.8 ± 2.1 kg/m3, the mass density (29658 kPa) was 743.8 ± 2.1 kg/m3 and the mass density (29685 kPa) was 743.9 ± 2.1 kg/m3. It also gave a mass density (29703 kPa) of 743.8 ± 2.1 kg/m3, a mass density (29722 kPa) of 743.9 ± 2.1 kg/m3 and a mass density (29747 kPa) of 743.9 ± 2.1 kg/m3. It also gave a mass density (29774 kPa) of 743.9 ± 2.1 kg/m3, a mass density (29790 kPa) of 743.8 ± 2.1 kg/m3 and a mass density (29812 kPa) of 743.8 ± 2.1 kg/m3. The mass density (29828 kPa) was 744 ± 2.1 kg/m3, the mass density (29859 kPa) was 743.9 ± 2.1 kg/m3 and the mass density (29883 kPa) was 744 ± 2.1 kg/m3. It also gave a mass density (29905 kPa) of 744 ± 2.1 kg/m3, a mass density (29930 kPa) of 743.9 ± 2.1 kg/m3 and a mass density (29952 kPa) of 744 ± 2.1 kg/m3. The mass density (29967 kPa) was 744 ± 2.1 kg/m3, the mass density (29987 kPa) was 743.9 ± 2.1 kg/m3 and the mass density (30005 kPa) was 744 ± 2.1 kg/m3. It also gave a mass density (30023 kPa) of 744.1 ± 2.1 kg/m3, a mass density (30051 kPa) of 743.9 ± 2.1 kg/m3 and a mass density (30077 kPa) of 744.1 ± 2.1 kg/m3. It also gave a mass density (30099 kPa) of 744 ± 2.1 kg/m3, a mass density (30125 kPa) of 744 ± 2.1 kg/m3 and a mass density (30150 kPa) of 744.2 ± 2.1 kg/m3. For the same compound, the mass density (30169 kPa) was 744.1 ± 2.1 kg/m3, the mass density (30198 kPa) was 744.2 ± 2.1 kg/m3 and the mass density (30220 kPa) was 744.1 ± 2.1 kg/m3. The mass density (30248 kPa) was 744.2 ± 2.1 kg/m3, the mass density (30267 kPa) was 744.2 ± 2.1 kg/m3 and the mass density (30290 kPa) was 744.2 ± 2.1 kg/m3. For the same compound, the mass density (30322 kPa) was 744.2 ± 2.1 kg/m3, the mass density (30348 kPa) was 744.3 ± 2.1 kg/m3 and the mass density (30374 kPa) was 744.3 ± 2.1 kg/m3. It also gave a mass density (30397 kPa) of 744.2 ± 2.1 kg/m3, a mass density (30420 kPa) of 744.3 ± 2.1 kg/m3 and a mass density (30443 kPa) of 744.3 ± 2.1 kg/m3. It also gave a mass density (30468 kPa) of 744.4 ± 2.1 kg/m3, a mass density (30491 kPa) of 744.4 ± 2.1 kg/m3 and a mass density (30516 kPa) of 744.3 ± 2.1 kg/m3. The mass density (30533 kPa) was 744.4 ± 2.1 kg/m3, the mass density (30553 kPa) was 744.4 ± 2.1 kg/m3 and the mass density (30582 kPa) was 744.3 ± 2.1 kg/m3. It also gave a mass density (30601 kPa) of 744.5 ± 2.1 kg/m3, a mass density (30621 kPa) of 744.4 ± 2.1 kg/m3 and a mass density (30644 kPa) of 744.5 ± 2.1 kg/m3. It also gave a mass density (30665 kPa) of 744.4 ± 2.1 kg/m3, a mass density (30695 kPa) of 744.5 ± 2.1 kg/m3 and a mass density (30715 kPa) of 744.3 ± 2.1 kg/m3. It also gave a mass density (30739 kPa) of 744.4 ± 2.1 kg/m3, a mass density (30762 kPa) of 744.5 ± 2.1 kg/m3 and a mass density (30789 kPa) of 744.7 ± 2.1 kg/m3. The mass density (30809 kPa) was 744.5 ± 2.1 kg/m3, the mass density (30833 kPa) was 744.5 ± 2.1 kg/m3 and the mass density (30853 kPa) was 744.7 ± 2.1 kg/m3. It also gave a mass density (30884 kPa) of 744.6 ± 2.1 kg/m3, a mass density (30908 kPa) of 744.6 ± 2.1 kg/m3 and a mass density (30931 kPa) of 744.6 ± 2.1 kg/m3. The mass density (30956 kPa) was 744.5 ± 2.1 kg/m3, the mass density (30980 kPa) was 744.6 ± 2.1 kg/m3 and the mass density (31007 kPa) was 744.6 ± 2.1 kg/m3. For the same compound, the mass density (31031 kPa) was 744.6 ± 2.1 kg/m3, the mass density (31062 kPa) was 744.8 ± 2.1 kg/m3 and the mass density (31083 kPa) was 744.7 ± 2.1 kg/m3. For the same compound, the mass density (31111 kPa) was 744.7 ± 2.1 kg/m3, the mass density (31134 kPa) was 744.6 ± 2.1 kg/m3 and the mass density (31157 kPa) was 744.7 ± 2.1 kg/m3. It also gave a mass density (31178 kPa) of 744.8 ± 2.1 kg/m3, a mass density (31212 kPa) of 744.7 ± 2.1 kg/m3 and a mass density (31231 kPa) of 744.8 ± 2.1 kg/m3. For the same compound, the mass density (31252 kPa) was 744.9 ± 2.1 kg/m3, the mass density (31271 kPa) was 744.8 ± 2.1 kg/m3 and the mass density (31293 kPa) was 744.9 ± 2.1 kg/m3. For the same compound, the mass density (31311 kPa) was 744.9 ± 2.1 kg/m3, the mass density (31327 kPa) was 744.8 ± 2.1 kg/m3 and the mass density (31348 kPa) was 744.9 ± 2.1 kg/m3. For the same compound, the mass density (31363 kPa) was 744.9 ± 2.1 kg/m3, the mass density (31381 kPa) was 744.9 ± 2.1 kg/m3 and the mass density (31400 kPa) was 744.9 ± 2.1 kg/m3. For the same compound, the mass density (31425 kPa) was 744.9 ± 2.1 kg/m3, the mass density (31446 kPa) was 745 ± 2.1 kg/m3 and the mass density (31468 kPa) was 745 ± 2.1 kg/m3. For the same compound, the mass density (31490 kPa) was 744.9 ± 2.1 kg/m3, the mass density (31515 kPa) was 744.9 ± 2.1 kg/m3 and the mass density (31540 kPa) was 745 ± 2.1 kg/m3. It also gave a mass density (31565 kPa) of 745 ± 2.1 kg/m3, a mass density (31588 kPa) of 745 ± 2.1 kg/m3 and a mass density (31610 kPa) of 745.1 ± 2.1 kg/m3. The mass density (31640 kPa) was 745.2 ± 2.1 kg/m3, the mass density (31660 kPa) was 745.1 ± 2.1 kg/m3 and the mass density (31688 kPa) was 745.1 ± 2.1 kg/m3. For the same compound, the mass density (31707 kPa) was 745.2 ± 2.1 kg/m3, the mass density (31725 kPa) was 745.2 ± 2.1 kg/m3 and the mass density (31754 kPa) was 745.1 ± 2.1 kg/m3. For the same compound, the mass density (31769 kPa) was 745.2 ± 2.1 kg/m3, the mass density (31798 kPa) was 745.1 ± 2.1 kg/m3 and the mass density (31817 kPa) was 745.2 ± 2.1 kg/m3. For the same compound, the mass density (31842 kPa) was 745.2 ± 2.1 kg/m3, the mass density (31861 kPa) was 745.1 ± 2.1 kg/m3 and the mass density (31887 kPa) was 745.1 ± 2.1 kg/m3. It also gave a mass density (31906 kPa) of 745.3 ± 2.1 kg/m3, a mass density (31925 kPa) of 745.3 ± 2.1 kg/m3 and a mass density (31950 kPa) of 745.3 ± 2.1 kg/m3. For the same compound, the mass density (31972 kPa) was 745.3 ± 2.1 kg/m3, the mass density (31995 kPa) was 745.3 ± 2.1 kg/m3 and the mass density (32014 kPa) was 745.3 ± 2.1 kg/m3. For the same compound, the mass density (32040 kPa) was 745.4 ± 2.1 kg/m3, the mass density (32059 kPa) was 745.4 ± 2.1 kg/m3 and the mass density (32079 kPa) was 745.4 ± 2.1 kg/m3. For the same compound, the mass density (32098 kPa) was 745.3 ± 2.1 kg/m3, the mass density (32128 kPa) was 745.3 ± 2.1 kg/m3 and the mass density (32150 kPa) was 745.4 ± 2.1 kg/m3. The mass density (32176 kPa) was 745.3 ± 2.1 kg/m3, the mass density (32198 kPa) was 745.5 ± 2.1 kg/m3 and the mass density (32228 kPa) was 745.4 ± 2.1 kg/m3. The mass density (32251 kPa) was 745.4 ± 2.1 kg/m3 and the mass density (32274 kPa) was 745.5 ± 2.1 kg/m3.
